Measurements published in patent publication US9180160B2, “Complement inhibitors for treatment of injury from intracerebral hemorrhage” (The Trustees of the University of Pennsylvania, priority 2008, dated 2015).

How the values were obtained:
Type in all cases: in vivo
[1] = test system: C57BL/6J mice subjected to ICH; assay: Forelimb placing test after ICH; settings: 1 mg/kg i.p. 45 minutes prior to ICH, then twice daily; 72 hours after ICH
Procedure: (§1) Animal Preparation and Intracerebral Infusion. Adult male C57BL/6J mice weighing 23-30 g were used. Mice were randomized to receive intraperitoneal injection of either C3aRA (1 mg/kg) (SB290157, Calbiochem, Darmstadt, Germany) diluted in PBS and DMSO (1.16% v/v), or an equal volume of vehicle (PBS and DMSO, 1.16% DMSO v/v) either 45 minutes prior to ICH induction or 6 and 12 hours after induction of ICH, followed in both cohorts by twice daily doses for 72 hours. […] Sham animals were given PBS and DMSO (1.16% v/v) in the same manner.
(§2) Mice were anesthetized with a single intraperitoneal dose of ketamine (90 mg/kg) and xylazine (5 mg/kg). […]
(§3) Neurofunction and behavioral testing. Sensorimotor function was evaluated by means of the 28-point neurological function score, corner test and forelimb placing tests, which were performed pre-operatively and at 6, 24, 48 and 72 hour post-injury. Navigational memory was evaluated with the means of a Morris water-maze (MWM) test pre-operatively and at 72 hours post ICH. […]
Forelimb placing test. […] Each animal was tested 10 times for each forelimb, and the percentage of trials in which the mouse placed the appropriate forelimb on the edge of the table after vibrissae stimulation was determined.

[2] = test system: C57BL/6J mice subjected to ICH; assay: Morris water-maze test (MWM) after ICH; settings: then twice daily, 72 hours after ICH, mean±SEM
Procedure: as §1, §2, §3
Morris water-maze test (MWM). […] The time, in seconds, spent by each animal to find the platform was recorded. […] The time spent in the quadrant where the platform had been situated before was recorded. […]

[3] = test system: C57BL/6J mice subjected to ICH; assay: Histopathology, hematoma (lesion) volume after ICH; settings: 1 mg/kg i.p. 45 minutes prior to ICH, then twice daily; 72 hours after ICH; mean±SEM
Procedure: as §1
Mice were anesthetized with a single intraperitoneal dose of ketamine (90 mg/kg) and xylazine (5 mg/kg). Next, the mice were placed in a stereotactic frame (ASI Instruments, Inc., Warren, Mich., USA) and subjected to ICH using autologous blood infusion as previously described (Rynkowski M A et al, 2008, Nat Protoc 3: 122-128), Briefly, a 1-mm burr hole was drilled 2.3 mm lateral to the midline and 0.2 mm anterior to the bregma. Thirty μL of autologous whole blood were drawn from the tail artery into a capillary tube. […]
Histopathology and determination of lesion volume. […] Striatal lesion volume was determined by digitizing serial coronal sections ([…]) to span the entire hematoma. […] Volume of the lesion (mm^3) was then determined by summation of the lesion area in each coronal section and integrating over the section depth of 0.5 mm.

For `NC(N)=NCCC[C@H](NC(=O)COCC(c1ccccc1)c1ccccc1)C(=O)O` [C3aRA], the “forelimb placing capacity in the impaired limb” value [1] was “no significant deficits compared with sham animals”, the “MWM time spent in the target quadrant” value ([2]; 1 mg/kg i.p. 45 minutes prior to ICH) was 19.62 ± 1.08 s and the “MWM time spent in the target quadrant” value ([2]; 1 mg/kg i.p. first at 6 h and 12 h after ICH) was 18.9 ± 1.3 s. For the same compound, the mean hematoma volume [3] was 12.17±1.33 mm^3.
